# Entries after “also recorded” stand apart in the source; their conditions may differ.
# Assays:
# c-kit in Kasumi-1 cells [1] = assay: FACS-based c-kit degradation assay in Kasumi-1 cells; assay type: cell-based; conditions: about 18 h
# Procedure: (§1) Two leukemia cell lines, HEL92.1.7 and Kasumi-1, were used for testing c-kit degradation induced by Hsp90 inhibitors of the invention. […] The cells were collected and centrifuged (SORVALL RT 6000D) at 1200 rpm for 5 min. The supernatants were discarded, and the cells were washed one time with 1×PBS. After centrifugation the cells were stained with FITC conjugated c-kit antibody (MBL International, Cat# K0105-4) in […] 1×PBS at 4° C. for 1 h. The samples were read and analysized with FACSCalibur flow cytometer (Becton Dicknson).
# c-kit in Kasumi-1 cells [2] = assay: Western blot analysis of c-Kit in Kasumi-1 cells; assay type: cell-based
# From the text: The results of the FACS analysis were confirmed with Western blot analysis (see FIG. 5). […] In contrast, 17-AAG had no effect of c-Kit protein levels.
# c-kit in HEL92.1.7 cells = assay: FACS-based c-kit degradation assay in HEL92.1.7 cells; assay type: cell-based; conditions: about 18 h
# Procedure: as §1
# [3] = tested on: RERF-LC-AI^IVP human lung tumor cells; assay: RERF-LC-AI^IVP nude mouse xenograft model; assay type: in vivo; conditions: for Growth rate of RERF-LC-AI^IVP tumors: 5 times per week, 15 doses
# Procedure: The human squamous non-small cell lung cancer cell line, RERF-LC-AI (RCB0444; S. Kyoizumi, et al., Cancer. Res. 45:3274-3281, 1985), was obtained from the Riken Cell Bank (Tsukuba, Ibaraki, Japan). […] FBS was obtained from American Type Culture Collection (Manassas, Va., USA) and all other reagents were obtained from Invitrogen Corp. (Carlsbad, Calif., USA). Approximately 4−5×10(6) cells that had been cryopreserved in liquid nitrogen were rapidly thawed at 37° C. and transferred to a 175 cm^2 tissue culture flask containing 50 ml of growth media and then incubated at 37° C. in a 5% CO2 incubator.
# The growth media was replaced every 2-3 days until the flask became 90% confluent, typically in 5-7 days. To passage and expand the cell line, a 90% confluent flask was washed with 10 ml of room temperature phosphate buffered saline (PBS) and the cells were disassociated by adding 5 ml 1× trypsin-EDTA (Invitrogen) and incubating at 37° C. until the cells detached from the surface of the flask. To inactivate the trypsin, 5 ml of growth media was added and then the contents of the flask were centrifuged to pellet the cells. The supernatant was aspirated and the cell pellet was resuspended in 10 ml of growth media and the cell number determined using a hemocytometer. Approximately 1-3×10(6) cells per flask were seeded into 175 cm^2 flasks containing 50 ml of growth media and incubated at 37° C. in a 5% CO2 incubator. When the flasks reached 90% confluence, the above passaging process was repeated until sufficient cells had been obtained for implantation into mice.
# Seven to eight week old, female Crl:CD-1-nuBR (nude) mice were obtained from Charles River Laboratories (Wilmington, Mass., USA). Animals were housed 4-5/cage in micro-isolators, with a 12 hr/12 hr light/dark cycle, acclimated for at least 1 week prior to use and fed normal laboratory chow ad libitum. Studies were conducted on animals between 8 and 12 weeks of age at implantation. […] Using a 27 gauge needle and 1 cc syringe, 0.1 ml of the cell suspension was injected subcutaneously into the flank of each nude mouse. Tumor volumes (V) were calculated by caliper measurement of the width (W), length (L) and thickness (T) of tumors using the following formula: V=0.5236×(L×W×T).
# In vivo passaged RERF-LC-AI tumor cells (RERF-LC-AI^IVP) were isolated to improve the rate of tumor implantation relative to the parental cell line in nude mice. RERF-LC-AI tumors were permitted to develop in vivo until they reached approximately 250 mm^3 in volume, which required approximately 3 weeks following implantation. Mice were euthanized via CO2 asphyxiation and their exteriors sterilized with 70% ethanol in a laminar flow hood. Using sterile technique, tumors were excised and diced in 50 ml PBS using a scalpel blade. […]
# [4] = tested on: Her2, an Hsp90 client protein; assay: Degradation of Her2 in BT-474 cells (Western blot); assay type: cell-based, Human; conditions: overnight
# Procedure: Human high-Her2 breast carcinoma BT474 (HTB-20), SK-BR-3 (HTB-30) and MCF-7 breast carcinoma (HTB-22) from American Type Culture Collection, VA, USA were grown in Dulbecco's modified Eagle's medium with 4 mM L-glutamine and antibiotics (100 IU/ml penicillin and 100 ug/ml streptomycine; GibcoBRL). To obtain exponential cell growth, cells were trypsinized, counted and seeded at a cell density of 0.5×10^6 cells/ml regularly, every 3 days. All experiments were performed on day 1 after cell passage.
# After treatment, each cytoplasmic sample was prepared from 1×10^6 cells by incubation of cell lysis buffer (#9803, cell Signaling Technology) on ice for 10 minutes. The resulting supernatant used as the cytosol fractions were dissolved with sample buffer for SDS-PAGE and run on a SDS-PAGE gel, blotted onto a nitrocellulose membrane by using semi-dry transfer. Non-specific binding to nitrocellulose was blocked with 5% skim milk in TBS with 0.5% Tween at room temperature for 1 hour, then probed with anti-Her2/ErB2 mAb (rabbit IgG, #2242, Cell Signaling) and anti-Tubulin (T9026, Sigma) as housekeeping control protein. HRP-conjugated goat anti-rabbit IgG (H+L) and HRP-conjugated horse anti-mouse IgG (H+L) were used as secondary Ab (#7074, #7076, Cell Signaling) and LumiGLO reagent, 20× Peroxide (#7003, Cell Signaling) was used for visualization.
# Hsp90 protein = assay: Malachite Green assay of ATPase activity of Hsp90; assay type: biochemical; conditions: 37° C., 4 hours
# Procedure: Hsp90 protein was obtained from Stressgen (Cat#SPP-770). Assay buffer: 100 mM Tris-HCl, Ph7.4, 20 mM KCl, 6 mM MgCl2. […] Malachite green reagent was added to the reaction. […] The plate was read by an ELISA reader with an absorbance at 620 nm.
smiles,measurement,setting,value
"C=CCNC1=C2C[C@@H](C)C[C@H](OC)[C@H](O)[C@@H](C)/C=C(\C)[C@H](OC(N)=O)[C@@H](OC)/C=C\C=C(/C)C(=O)NC(=CC1=O)C2=O [Compound 17-AAG, 17-allylamino-17-demethoxygeldanamycin, reference compound]",c-kit degradation,c-kit in Kasumi-1 cells [1]; 0.5 μM,could not induce c-kit degradation
same,c-Kit protein levels (Western blot),c-kit in Kasumi-1 cells [2]; concentration not given,had no effect
same,c-kit degradation,c-kit in HEL92.1.7 cells; 0.5 μM,could not induce c-kit degradation
same,Growth rate of RERF-LC-AI^IVP tumors,[3]; 75 mg/kg body weight i.p.,inhibited tumor growth; also recorded: decreased the growth rate
same,Maximum tolerated dose in nude mice,"[3]; i.p., dosed at approximately the maximum tolerated dose",~75 mg/kg body weight
"Oc1ccc(-c2nnc(S)n2-c2cccc3ccccc23)c(O)c1 [Compound 108, 3-(2,4-Dihydroxy-phenyl)-4-(naphthalen-1-yl)-5-mercapto-[1,2,4] triazole]",Degradation of Her2,[4]; 0.5 μM,partially degradated
same,Degradation of Her2,[4]; 2 μM,partially degradated
same,Degradation of Her2,[4]; 5 μM,almost completely degraded
same,ATPase activity of Hsp90,Hsp90 protein; 4 μM,significant inhibition
same,ATPase activity of Hsp90,Hsp90 protein; 40 μM,even greater inhibition
"CCc1cc(-c2nnc(S)n2-c2ccc(OC)c3c2ccn3C(C)C)c(O)cc1O [Compound 188, 3-(2,4-Dihydroxy-5-ethyl-phenyl)-4-(1-isopropyl-7-methoxy-indol-4-yl)-5-mercapto-[1,2,4] triazole]",c-kit degradation,c-kit in Kasumi-1 cells [1]; 0.05 μM,induced c-kit degradation
same,c-kit degradation,c-kit in Kasumi-1 cells [1]; 0.5 μM,induced c-kit degradation
same,c-kit degradation,c-kit in HEL92.1.7 cells; 0.05 μM,induced c-kit degradation
same,c-kit degradation,c-kit in HEL92.1.7 cells; 0.5 μM,induced c-kit degradation
same,Growth rate of RERF-LC-AI^IVP tumors,[3]; 200 mg/kg body weight i.p.,inhibited tumor growth; also recorded: decreased the growth rate
same,Maximum tolerated dose in nude mice,"[3]; mouse, in vivo, ip",~200 mg/kg body weight
"CC(C)c1cc(-c2nnc(S)n2-c2ccc3c(ccn3C)c2)c(O)cc1O [Compound 221, 3-(2,4-dihydroxy-5-isopropyl-phenyl)-4-(N-methyl-indol-5-yl)-5-mercapto-[1,2,4] triazole]",c-kit degradation,c-kit in Kasumi-1 cells [1]; 0.05 μM,induced c-kit degradation
same,c-kit degradation,c-kit in Kasumi-1 cells [1]; 0.5 μM,induced c-kit degradation
same,c-Kit protein levels (Western blot),c-kit in Kasumi-1 cells [2]; 100 nM,induced the degradation of c-Kit
same,c-Kit protein levels (Western blot),c-kit in Kasumi-1 cells [2]; 400 nM,induced the degradation of c-Kit
same,c-kit degradation,c-kit in HEL92.1.7 cells; 0.05 μM,induced c-kit degradation
same,c-kit degradation,c-kit in HEL92.1.7 cells; 0.5 μM,induced c-kit degradation
